Columns and labels:
[1] = target: Substance-P receptor (Homo sapiens, UniProt P25103); type: cell membranes, CHO, Membrane; conditions: cho; also: in other assays of this panel Not Active means under 50% inhibition at 10 µM
[2] = target: T1, Endothelin-1 receptor (Homo sapiens, UniProt P25101); type: cell membranes, Membrane; conditions: cho-k1; also: in other assays of this panel Not Active means under 50% inhibition at 10 µM
T1 sequence (P25101 whole entry): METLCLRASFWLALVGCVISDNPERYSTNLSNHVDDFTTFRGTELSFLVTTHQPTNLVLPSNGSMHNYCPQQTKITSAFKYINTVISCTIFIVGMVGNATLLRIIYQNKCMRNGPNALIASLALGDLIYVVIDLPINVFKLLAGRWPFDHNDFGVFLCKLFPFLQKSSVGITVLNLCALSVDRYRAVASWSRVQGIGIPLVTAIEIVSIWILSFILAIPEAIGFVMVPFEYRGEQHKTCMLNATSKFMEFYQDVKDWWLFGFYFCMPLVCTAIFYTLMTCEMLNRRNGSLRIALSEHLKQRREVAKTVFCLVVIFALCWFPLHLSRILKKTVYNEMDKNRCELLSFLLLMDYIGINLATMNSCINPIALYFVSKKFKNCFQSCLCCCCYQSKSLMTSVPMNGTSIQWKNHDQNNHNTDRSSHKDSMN

[3] = target: Prostaglandin G/H synthase 1 (Homo sapiens, UniProt P23219); assay: biochemical; type: tissue-based, Platelet; conditions: platelet;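 also: inhibition of COX-1 enzyme activity, with arachidonic acid supplied as substrate; in other assays of this panel Not Active means under 50% inhibition at 10 µM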
[4] = target: Cytochrome P450 2C19 (Homo sapiens, UniProt P33261); conditions: bti-tn-5b1-4; also: in other assays of this panel Not Active means under 50% inhibition at 10 µM
[5] = DRUGMATRIX: Potassium Channel [KATP] radioligand binding (ligand: [3H] Glyburide); type: cell membranes, Membrane; conditions: hit-t15; Not Active = under 50% inhibition at 10 µM
[6] = target: Mu-type opioid receptor (Homo sapiens, UniProt P35372); assay: DRUGMATRIX: Opiate mu (OP3, MOP) radioligand binding (ligand: [3H] Diprenorphine); type: cell membranes, CHO-K1, Membrane; conditions: cho-k1; Not Active = under 50% inhibition at 10 µM
[7] = target: T2, Alpha-2C adrenergic receptor (Homo sapiens, UniProt P18825); assay: DRUGMATRIX: Adrenergic Alpha-2C radioligand binding (ligand: [3H] MK-912); type: cell membranes, Sf9, Membrane; conditions: sf9
T2 sequence (P18825 whole entry): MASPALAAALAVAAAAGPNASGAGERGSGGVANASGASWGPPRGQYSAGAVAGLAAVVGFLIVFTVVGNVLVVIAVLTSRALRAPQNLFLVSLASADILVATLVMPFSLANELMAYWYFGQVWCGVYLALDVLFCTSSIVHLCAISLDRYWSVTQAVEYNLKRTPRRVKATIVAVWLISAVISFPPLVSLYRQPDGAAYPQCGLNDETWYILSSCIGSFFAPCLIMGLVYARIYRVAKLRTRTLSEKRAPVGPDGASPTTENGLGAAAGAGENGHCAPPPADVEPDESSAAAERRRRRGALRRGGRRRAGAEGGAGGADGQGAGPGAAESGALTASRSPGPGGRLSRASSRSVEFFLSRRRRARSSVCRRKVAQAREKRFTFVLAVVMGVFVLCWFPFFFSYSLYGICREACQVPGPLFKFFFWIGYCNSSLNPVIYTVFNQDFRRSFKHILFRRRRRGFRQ

[8] = target: Beta-3 adrenergic receptor (Homo sapiens, UniProt P13945); assay: DRUGMATRIX: Adrenergic beta3 radioligand binding (ligand: [125I] Cyanopindolol); type: cell membranes, HEK293, Membrane; conditions: hek293; Not Active = under 50% inhibition at 10 µM
[9] = target: T3, Angiotensin-converting enzyme (Oryctolagus cuniculus, UniProt P12822); assay: biochemical; type: tissue-based, Lung
T3 sequence (P12822 whole entry): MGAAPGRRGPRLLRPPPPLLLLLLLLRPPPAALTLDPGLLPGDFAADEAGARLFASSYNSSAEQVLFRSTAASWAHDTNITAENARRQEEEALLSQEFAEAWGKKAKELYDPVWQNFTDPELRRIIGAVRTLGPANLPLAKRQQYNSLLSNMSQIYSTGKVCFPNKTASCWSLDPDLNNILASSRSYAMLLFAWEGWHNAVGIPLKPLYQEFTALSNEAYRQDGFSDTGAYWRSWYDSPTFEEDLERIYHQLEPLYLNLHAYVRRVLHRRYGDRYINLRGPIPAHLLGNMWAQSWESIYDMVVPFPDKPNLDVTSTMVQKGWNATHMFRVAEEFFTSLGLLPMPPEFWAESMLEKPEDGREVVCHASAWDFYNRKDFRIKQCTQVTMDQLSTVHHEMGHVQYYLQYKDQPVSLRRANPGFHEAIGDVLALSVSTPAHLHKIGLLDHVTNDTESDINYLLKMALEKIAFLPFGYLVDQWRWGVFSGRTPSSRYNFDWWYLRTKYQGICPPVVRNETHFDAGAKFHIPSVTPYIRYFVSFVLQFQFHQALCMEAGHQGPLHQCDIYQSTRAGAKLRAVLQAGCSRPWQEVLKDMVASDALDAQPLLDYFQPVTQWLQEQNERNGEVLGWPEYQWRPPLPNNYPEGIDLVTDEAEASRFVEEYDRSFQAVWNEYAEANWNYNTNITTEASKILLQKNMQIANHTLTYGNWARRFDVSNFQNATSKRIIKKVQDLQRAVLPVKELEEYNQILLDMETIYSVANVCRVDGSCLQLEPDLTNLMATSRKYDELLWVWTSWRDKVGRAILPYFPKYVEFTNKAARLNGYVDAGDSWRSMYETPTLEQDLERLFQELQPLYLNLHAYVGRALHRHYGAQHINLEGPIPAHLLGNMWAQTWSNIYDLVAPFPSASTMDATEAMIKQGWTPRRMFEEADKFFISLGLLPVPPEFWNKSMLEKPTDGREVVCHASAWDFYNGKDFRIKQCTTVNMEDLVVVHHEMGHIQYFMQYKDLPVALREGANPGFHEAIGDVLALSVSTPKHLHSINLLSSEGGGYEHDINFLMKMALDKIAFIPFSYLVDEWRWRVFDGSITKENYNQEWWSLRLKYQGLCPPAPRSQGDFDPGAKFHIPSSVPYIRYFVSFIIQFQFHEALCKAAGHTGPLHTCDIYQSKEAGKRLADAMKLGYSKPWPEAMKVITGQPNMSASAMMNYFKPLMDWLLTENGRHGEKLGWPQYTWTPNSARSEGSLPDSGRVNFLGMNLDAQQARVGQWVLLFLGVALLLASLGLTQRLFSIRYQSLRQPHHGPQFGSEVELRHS

[10] = DRUGMATRIX: Serotonin (5-Hydroxytryptamine) 5-HT3 radioligand binding (ligand: [3H] GR-65630); type: cell membranes, Membrane; conditions: hek293; Not Active = under 50% inhibition at 10 µM
[11] = target: Voltage-gated inwardly rectifying potassium channel KCNH2 (Homo sapiens, UniProt Q12809); conditions: hek293; also: in other assays of this panel Not Active means under 50% inhibition at 10 µM
[12] = DRUGMATRIX: Glutamate, Kainate radioligand binding (ligand: [3H] Kainic acid); type: cell membranes, Rattus norvegicus, Wistar, Brain, Membrane; conditions: Not Active = under 50% inhibition at 10 µM

Sequence of Substance-P receptor (P25103 whole entry): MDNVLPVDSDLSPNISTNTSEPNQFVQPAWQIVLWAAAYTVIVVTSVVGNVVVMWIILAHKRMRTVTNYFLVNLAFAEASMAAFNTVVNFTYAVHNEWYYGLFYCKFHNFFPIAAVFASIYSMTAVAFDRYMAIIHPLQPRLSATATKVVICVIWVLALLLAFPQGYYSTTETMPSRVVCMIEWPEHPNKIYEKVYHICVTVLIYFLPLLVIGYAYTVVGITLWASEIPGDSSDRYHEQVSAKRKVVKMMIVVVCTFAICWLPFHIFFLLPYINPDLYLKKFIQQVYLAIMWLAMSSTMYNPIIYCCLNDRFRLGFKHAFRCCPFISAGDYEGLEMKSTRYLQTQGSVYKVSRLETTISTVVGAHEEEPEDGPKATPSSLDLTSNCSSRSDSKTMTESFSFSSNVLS
Sequence of Beta-3 adrenergic receptor (P13945 whole entry): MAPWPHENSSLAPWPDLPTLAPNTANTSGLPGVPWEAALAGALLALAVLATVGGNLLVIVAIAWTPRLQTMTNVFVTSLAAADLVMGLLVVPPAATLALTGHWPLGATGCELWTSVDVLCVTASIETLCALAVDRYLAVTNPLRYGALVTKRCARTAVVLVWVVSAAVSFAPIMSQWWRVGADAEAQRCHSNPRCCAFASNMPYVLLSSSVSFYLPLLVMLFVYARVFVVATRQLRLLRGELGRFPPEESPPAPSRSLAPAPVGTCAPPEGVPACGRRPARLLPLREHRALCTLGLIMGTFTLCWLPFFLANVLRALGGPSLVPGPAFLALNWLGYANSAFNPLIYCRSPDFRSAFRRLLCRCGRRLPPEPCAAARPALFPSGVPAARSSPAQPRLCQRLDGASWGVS
Sequence of Mu-type opioid receptor (P35372 whole entry): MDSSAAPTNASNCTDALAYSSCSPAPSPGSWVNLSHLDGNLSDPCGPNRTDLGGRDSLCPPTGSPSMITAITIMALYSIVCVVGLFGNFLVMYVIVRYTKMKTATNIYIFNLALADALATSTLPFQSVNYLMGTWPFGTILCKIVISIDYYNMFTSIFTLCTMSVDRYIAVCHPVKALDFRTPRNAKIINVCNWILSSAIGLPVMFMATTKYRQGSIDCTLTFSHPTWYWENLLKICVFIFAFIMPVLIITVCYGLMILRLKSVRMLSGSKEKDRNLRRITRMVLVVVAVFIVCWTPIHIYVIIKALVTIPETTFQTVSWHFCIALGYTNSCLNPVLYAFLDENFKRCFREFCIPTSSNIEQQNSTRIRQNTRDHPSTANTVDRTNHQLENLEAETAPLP
Sequence of Prostaglandin G/H synthase 1 (P23219 whole entry): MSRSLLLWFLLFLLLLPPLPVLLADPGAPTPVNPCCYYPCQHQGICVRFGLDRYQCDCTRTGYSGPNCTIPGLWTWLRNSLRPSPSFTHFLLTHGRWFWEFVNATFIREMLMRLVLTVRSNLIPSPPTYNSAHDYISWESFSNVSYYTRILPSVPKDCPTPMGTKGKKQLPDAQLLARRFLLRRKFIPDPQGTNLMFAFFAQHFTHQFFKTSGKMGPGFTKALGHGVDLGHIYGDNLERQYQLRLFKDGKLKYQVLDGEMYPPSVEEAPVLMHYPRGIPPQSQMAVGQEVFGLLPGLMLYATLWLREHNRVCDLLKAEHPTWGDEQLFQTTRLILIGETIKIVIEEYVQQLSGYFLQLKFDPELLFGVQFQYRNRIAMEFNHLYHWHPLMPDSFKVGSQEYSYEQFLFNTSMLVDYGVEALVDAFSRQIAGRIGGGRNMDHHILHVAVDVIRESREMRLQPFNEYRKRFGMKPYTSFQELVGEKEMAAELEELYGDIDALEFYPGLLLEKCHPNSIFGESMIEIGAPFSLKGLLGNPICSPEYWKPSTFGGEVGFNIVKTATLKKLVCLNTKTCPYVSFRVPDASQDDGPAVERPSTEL
Sequence of Cytochrome P450 2C19 (P33261 whole entry): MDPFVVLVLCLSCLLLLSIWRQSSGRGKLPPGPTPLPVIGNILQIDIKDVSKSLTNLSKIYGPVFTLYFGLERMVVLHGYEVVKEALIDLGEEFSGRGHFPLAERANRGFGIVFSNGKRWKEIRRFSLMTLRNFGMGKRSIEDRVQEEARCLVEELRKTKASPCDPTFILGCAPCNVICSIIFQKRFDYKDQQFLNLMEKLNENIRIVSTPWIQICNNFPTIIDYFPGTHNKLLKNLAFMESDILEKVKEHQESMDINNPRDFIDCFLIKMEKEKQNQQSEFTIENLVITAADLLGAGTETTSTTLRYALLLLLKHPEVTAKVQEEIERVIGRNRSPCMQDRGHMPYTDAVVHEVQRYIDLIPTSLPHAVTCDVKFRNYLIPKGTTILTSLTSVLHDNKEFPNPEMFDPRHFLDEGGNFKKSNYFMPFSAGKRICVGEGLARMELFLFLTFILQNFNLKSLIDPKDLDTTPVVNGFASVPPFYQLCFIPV
Sequence of Voltage-gated inwardly rectifying potassium channel KCNH2 (Q12809 whole entry): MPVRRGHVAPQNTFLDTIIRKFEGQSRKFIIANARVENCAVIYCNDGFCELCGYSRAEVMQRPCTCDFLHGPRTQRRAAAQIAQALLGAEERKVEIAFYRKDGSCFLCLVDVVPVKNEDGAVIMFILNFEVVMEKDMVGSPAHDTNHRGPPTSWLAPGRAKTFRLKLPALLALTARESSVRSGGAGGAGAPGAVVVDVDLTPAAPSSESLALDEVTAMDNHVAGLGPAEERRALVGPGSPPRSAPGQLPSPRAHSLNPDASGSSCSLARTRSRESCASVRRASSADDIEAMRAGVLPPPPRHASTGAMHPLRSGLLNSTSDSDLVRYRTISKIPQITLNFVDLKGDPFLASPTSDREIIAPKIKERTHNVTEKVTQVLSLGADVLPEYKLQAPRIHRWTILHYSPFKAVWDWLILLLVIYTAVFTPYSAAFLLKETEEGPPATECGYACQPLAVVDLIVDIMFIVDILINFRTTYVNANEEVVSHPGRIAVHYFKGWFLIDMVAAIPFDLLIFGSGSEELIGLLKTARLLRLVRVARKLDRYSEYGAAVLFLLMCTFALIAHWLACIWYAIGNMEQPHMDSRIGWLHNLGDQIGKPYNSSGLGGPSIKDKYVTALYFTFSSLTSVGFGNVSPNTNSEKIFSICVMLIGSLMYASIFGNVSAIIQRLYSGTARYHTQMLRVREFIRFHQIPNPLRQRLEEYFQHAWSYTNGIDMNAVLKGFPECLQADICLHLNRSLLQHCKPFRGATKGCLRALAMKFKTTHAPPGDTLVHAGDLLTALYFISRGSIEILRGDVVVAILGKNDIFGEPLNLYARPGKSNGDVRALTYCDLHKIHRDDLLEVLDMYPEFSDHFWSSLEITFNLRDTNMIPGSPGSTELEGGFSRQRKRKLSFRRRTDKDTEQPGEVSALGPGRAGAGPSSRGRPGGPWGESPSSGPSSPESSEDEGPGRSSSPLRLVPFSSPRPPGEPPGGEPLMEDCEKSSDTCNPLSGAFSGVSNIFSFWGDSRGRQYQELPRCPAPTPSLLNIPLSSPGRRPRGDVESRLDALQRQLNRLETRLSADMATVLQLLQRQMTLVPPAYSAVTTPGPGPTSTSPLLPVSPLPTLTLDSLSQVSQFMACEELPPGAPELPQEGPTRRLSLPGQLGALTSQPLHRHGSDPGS

CNC(=O)Oc1ccc2c(c1)[C@]1(C)CCN(C)[C@@H]1N2C [PHYSOSTIGMINE]
Not Active: IC50 [1] | IC50 [2] | IC50 [3] | IC50 [4] | Ki [4] | IC50 [5] | Ki [5] | IC50 [6] | IC50 [7] | IC50 [8] | IC50 [9] | IC50 [10] | Ki [10] | IC50 [11] | Ki [11] | IC50 [12] | Ki [12]

CCC1(c2ccccc2)C(=O)NCNC1=O [PRIMIDONE]
Not Active: IC50 [1] | IC50 [2] | IC50 [3] | IC50 [4] | Ki [4] | IC50 [5] | Ki [5] | IC50 [6] | IC50 [7] | IC50 [8] | IC50 [9] | IC50 [10] | Ki [10] | IC50 [11] | Ki [11] | IC50 [12] | Ki [12]

CCCc1cc(=O)[nH]c(=S)[nH]1 [PROPYLTHIOURACIL]
Not Active: IC50 [1] | IC50 [2] | IC50 [3] | IC50 [4] | Ki [4] | IC50 [5] | Ki [5] | IC50 [6] | IC50 [7] | IC50 [8] | IC50 [9] | IC50 [10] | Ki [10] | IC50 [11] | Ki [11] | IC50 [12] | Ki [12]
